Assay [1] deals with T1, cytochrome c oxidase (CcO) purified from heart mitochondria (Bos taurus, UniProt P00396+P07471+P68530).
T1 construct: Cytochrome c oxidase was purified from the heart mitochondria of Bos taurus; from tissue; host or cells: bovine heart mitochondria
In words: Cytochrome oxidase activity of solubilized mitochondrial CcO (oxygen uptake). The format is biochemical.

For assay [2], the system named is cytochrome c oxidase (CcO), peroxidase activity. In words: Peroxidase partial activity of solubilized CcO (peroxidation of ferrocyanide). The format is biochemical, Bos taurus. The following applies: 50 μM P4; 0.6 μM solubilized CcO, 0.2 mM ferrocyanide with equimolar ferricyanide, 4 mM H2O2. On the procedure: The two-electron reduction of H2O2 to water refers to the peroxidase phase of the CcO catalytic cycle. As shown previously, this reaction can be carried out aerobically using a high-potential electron donor [51]. We followed this partial activity of CcO in the presence of a ferro/ferricyanide pair at E’ ≈ +420 mV when the oxidase reaction becomes negligible. Peroxidation of ferrocyanide by CcO was recorded spectrophotometrically (Figure 3).
Peroxidation of 0.2 mM ferrocyanide (against the background of equimolar ferricyanide) was monitored at 0.6 μM solubilized CcO. The reaction was triggered by the addition of 4 mM H2O2 (shown by the arrow). […] The initial jump upon H2O2 addition reflects spectral response in the γ-band of heme a3 upon oxoferryl intermediate formation.
Peroxidase partial activity of CcO was assayed in BM following peroxidation of ferrocyanide by the absorption difference at 420 nm vs. 500 nm references, using the spectrophotometer SLM Aminco DW-2000 (SLM Instruments, Urbana, IL, USA) in a dual-wavelength mode. In order to obtain a redox buffer with Em ≈ 420 mV, equal amounts of ferri- and ferrocyanide were mixed. No ferrocyanide oxidase activity was observed until the peroxidase reaction was initiated by the addition of H2O2. The reaction was carried out in a standard semi-micro cuvette (Hellma, Mullheim, Germany) with blackened side walls and a 10 mm light pathway.

For assay [3], the target named is T2, CcO in rat liver mitochondria (Rattus norvegicus, UniProt P00406+P05503).
T2 construct: Rat liver mitochondria were isolated by differential centrifugation; from tissue; host or cells: rat liver mitochondria
T2 sequence (P00406 whole entry, other chains not shown): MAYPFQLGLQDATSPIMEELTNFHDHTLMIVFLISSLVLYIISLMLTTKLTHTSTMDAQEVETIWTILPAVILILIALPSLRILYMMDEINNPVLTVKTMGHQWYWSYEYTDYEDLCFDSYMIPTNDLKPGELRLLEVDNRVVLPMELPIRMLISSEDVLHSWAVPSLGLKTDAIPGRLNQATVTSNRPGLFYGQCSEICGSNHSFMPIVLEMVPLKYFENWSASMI
Kind of assay: CcO activity in the mitochondrial membrane (respiration of rat liver mitochondria). The format is biochemical.

The subject of assay [4] is CcO reconstituted into asolectin vesicles. Kind of assay: CcO activity in asolectin proteoliposomes. The format is biochemical, Bos taurus. The following applies: peptide up to 150 μM.
Assay [5] can be described thus: Permeabilization of calcein-loaded asolectin liposomes (calcein release). The conditions noted are these: 5 μM peptide.

These results are taken from article PMC9961948, “Interaction of Amphipathic Peptide from Influenza Virus M1 Protein with Mitochondrial Cytochrome Oxidase” (International Journal of Molecular Sciences, 2023).

Where two headings read alike, the source gives them in different places. Some results are limits rather than exact numbers.

For Ac-RTKLWEMLVELGNMDKAVKLWRKLKR-NH2 [P4], the “final rate of the oxidase reaction, % of the initial” value in assay [1] (20 μM P4 added in the course of the reaction, constant level 1.5 min later, solubilized CcO 20 nM) is no more than 15%. Further, the Ki in assay [1] (solubilized bovine heart CcO 20 nM, oxygen uptake, Clark electrode, 25 °C, BM 50 mM Hepes/Tris pH 7.6, 50 mM KCl, 1 mM (0.05%) DM, 5 mM ascorbate, 0.1 mM TMPD, 10 μM cytochrome c, fit by Equation (1), read-out: Inhibition of CcO, Solubilized, Ki(app)) is 0.0076 mM; in assay [1] (solubilized mitochondrial CcO, intercept of linear dependence of Ki(app) on [DM], read-out: true Ki (extrapolation of DM to zero)) it was 0.003 mM. Besides, the “rate of peroxidase reaction (ferricyanide formation) upon addition of peptide” value in assay [2] is “did not change”. Besides, the “inhibitor concentration up to which the rate of the oxidase reaction remains almost unchanged” value in assay [3] was ~ 10 μM. Also, in assay [4], the “oxidase reaction rate of CcO in proteoliposomes upon addition of peptide” value is “does not change the reaction rate”. Further, in assay [5] (100% = after Triton X-100 0.1%), the “time to reach the 100% level of calcein release” value was 3 min. Further, in assay [5] (liposomes 0.1 mg lipid/mL, 20 mM MOPS/Tris pH 7.3, 0.2 mM EDTA, fluorescence 520 nm (excitation 490 nm)), the “t1/2 of fluorescence increase (calcein release)” value is recorded as ~ 12 s.
